# Measurements: patent US11549147B2, “Treatment of atopic dermatitis with tradipitant” (VANDA PHARMACEUTICALS INC., priority 2017, dated 2023)
# Values joined by “and” are separate entries in the source; they are usually repeats but may differ in a detail not shown here. Equal entries are not always repeated.
# Assays:
# Assay type in all cases: in vivo, human
# [1] = test system: change of Worst Itch (VAS) in patients suffering from atopic dermatitis; assay: INADL variants modifying change of Worst Itch (VAS) in the treated cohort (Example 6, Table 12)
# Text: In addition, within the treated cohort described herein in Example 4, Table 6, the top loci identified as modifying change of Worst Itch (VAS) are variants located within INADL gene, shown below in Table 12.
# [2] = Plasma levels of tradipitant at time of efficacy evaluation, PK analysis (Example 1); settings: 100 mg qd
# Experimental: Baseline VAS scores are 76.1 and 77.2 for the tradipitant and placebo arms respectively. Efficacy is evaluated through a number of clinical research instruments. In addition, at the time of efficacy evaluation blood samples are collected for PK analysis in order to determine the plasma levels of tradipitant.
# The average plasma concentrations of tradipitant across AM and PM-evaluated patients are between about 125 ng/mL and about 225 ng/mL. Patients evaluated in the afternoons (PM) (mean=about 20 hours post last administration) tend to have lower plasma concentrations of tradipitant than patients evaluated in the mornings (AM) (mean=about 15 hours post last administration). The average plasma concentration in the PM group is about 125 ng/mL, and the average plasma concentration in the AM group is about 225 ng/mL, the difference being largely attributable to the length of time post-administration.
# [3] = test system: chronic pruritus associated with atopic dermatitis; assay: Phase II randomized double-blind placebo-controlled study NCT02651714 (Example 3); set-up: key to average itch VAS, difference / worst itch VAS, difference: VAS in mm, 0-100 mm scale; key to Average Itch VAS / worst Itch VAS: change in VAS, mm on 0-100 mm scale; CGI-C / SKINDEX-16 / Worst Itch NRS Night / worst itch NRS night, difference / CGIC, difference: scale not given here
# Experimental: A phase II, multicenter, randomized, double-blind, placebo-controlled clinical study (“Tradipitant in Treatment-resistant Pruritus Associated with Atopic Dermatitis,” clinicaltrials.gov Study ID NCT02651714) is conducted to determine the efficacy of tradipitant relative to placebo in reducing chronic pruritus as measured by the VAS.
# Inclusion criteria for the study include chronic (≥6 weeks) itch related to AD that is refractory to treatment by patient history, average itch score by VAS of ≥70 mm (out of 100 mm), verbal response score (VRS) of ≥3 on at least one of the past three days prior to randomization, and a SCORAD of <80.
# Patients are randomized to receive either 85 mg of tradipitant or placebo (1:1) bid. The design for the randomized, placebo-controlled, double-blind study is depicted in FIG. 3. Individuals with chronic pruritus associated with AD are administered 85 mg of tradipitant bid or placebo for eight weeks. Average itch severity and worst itch severity are assessed by VAS, and VRS is assessed every two weeks. In addition, treatment is assessed biweekly using both the objective and subjective SCORing Atopic Dermatitis (SCORAD) Index (Severity Scoring of Atopic Dermatitis: The SCORAD Index, Consensus Report of the European Task Force on Atopic Dermatitis, Dermatology 1993; 186:23-31) and the Eczema Area and Severity Index (EASI) (Hanifin et al., The eczema area and severity index (EASI): assessment of reliability in atopic dermatitis, Experimental Dermatology 10(1):11-18 (2001)). The Clinical Global Impressions of Change (CGI-C) scale, the Patient Global Impression of Change (PGIC) scale with respect to both itch and AD, the Patient Benefit Index (PBI), and SKINDEX-16 scales are also used for assessments. Twice daily questionnaires are completed to report worst and average itch by numeric rating scale (NRS).
# The objective SCORAD assessment includes parameters including extension, intensity, excoriations, erythema, oozing or crusting, the presence of edema or papules, lichenification, and skin dryness. The subjective SCORAD assessment includes patient assessments of itch and insomnia.
# [4] = ITT population, 85 mg bid, week 8
# [5] = categorical, ITT, 85 mg bid, week 8
# [6] = difference tradipitant vs placebo, 85 mg bid, week 8
compound,measurement,setting,value
O=C(c1ccccc1Cl)c1cccnc1-c1nnn(Cc2cc(C(F)(F)F)cc(C(F)(F)F)c2)c1-c1ccncc1 [Tradipitant],Genotype associated with worse Worst Itch (VAS) response,"[1]; INADL SNP rs370530530, minor allele CT, major allele C, treated cohort",CTCT
same,"response as measured by change of Worst Itch (VAS), by genotype",[1]; INADL rs11207834 TT genotype,itch scale improvement
same,"response as measured by change of Worst Itch (VAS), by genotype","[1]; INADL rs11207834 minor allele, 85 mg bid",decreased response to treatment
same,average plasma concentration,"[2]; AM group, mean about 15 hours post last administration",about 225 ng/mL
same,plasma concentration at which patients tend to show greater efficacy,[2]; PK-efficacy correlation,> 100 ng/mL
same,average plasma concentration,"[2]; PM group, mean about 20 hours post last administration",about 125 ng/mL
same,time at which treatment effects in both itch and disease severity are evident,[3]; 85 mg bid,2 Week
same,"clinical features of severity of atopic dermatitis, including excoriation, erythema, oozing and dryness",[3]; 85 mg bid vs placebo,significant improvements
same,Average Itch VAS,[3]; [4],−41.5
same,CGI-C,[3]; [4],2.6
same,PBI,[3]; [4],1.7 and 1.72
same,PGI-C AD,[3]; [4],2.7 and 2.74
same,PGI-C Itch,[3]; [4],2.6 and 2.56
same,SKINDEX-16,[3]; [4],−34.8
same,Worst Itch NRS Night,[3]; [4],−3.4
same,Worst itch NRS day,[3]; [4],−3.3
same,worst Itch VAS,[3]; [4],−44.2
same,Worst itch VAS ≥30 (responders),"[3]; categorical, ≥30 points improvement from baseline, ITT, 85 mg bid, week 8",56.60%
same,Worst itch VAS ≥40 (responders),"[3]; categorical, ≥40 points improvement from baseline, ITT, 85 mg bid, week 8",52.6%
same,EASI ≥75% (patients with 75% or greater improvement),[3]; [5],21.1%
same,SCORAD ≥50% (patients with 50% or greater improvement),[3]; [5],44.0%
same,"CGIC, difference",[3]; [6],−0.7
same,"EASI ≥75%, difference",[3]; [6],10.0%
same,"PBI, difference",[3]; [6],0.48
same,"PGIC AD, difference",[3]; [6],−0.71
same,"PGIC itch, difference",[3]; [6],−0.6
same,"SCORAD total, difference",[3]; [6],−7.68
same,"SCORAD ≥50%, difference",[3]; [6],23.2%
same,"average itch VAS, difference",[3]; [6],−5.7
same,"objective SCORAD, difference",[3]; [6],−6.1
same,"subjective SCORAD, difference",[3]; [6],−1.43
same,"worst itch NRS day, difference",[3]; [6],−0.81
same,"worst itch NRS night, difference",[3]; [6],−1.05
same,"worst itch VAS (≥40), difference",[3]; [6],17.9%
same,"worst itch VAS, difference",[3]; [6],−13.6
